# Experimental data from article PMC9482650, “Quantitative fragmentomics allow affinity mapping of interactomes” (Nature Communications, 2022).
# Ends that are not written are not given here.
# Tests used:
# Test in all cases: Holdup assay
# Assay type in all cases: binding
# Inadl_8 PDZ = Inadl_8 PDZ (Homo sapiens, UniProt Q8NI35); conditions: composite holdup affinity; 0.00=below quantification threshold; read-out: COMP pKd (converted)
# IL16_1 PDZ = IL16_1 PDZ (Homo sapiens, UniProt Q14005); conditions: composite holdup affinity; 0.00=below quantification threshold; read-out: COMP pKd (converted)
# IL16_1 PDZ, sequence (Q14005 216-302 limits assumed): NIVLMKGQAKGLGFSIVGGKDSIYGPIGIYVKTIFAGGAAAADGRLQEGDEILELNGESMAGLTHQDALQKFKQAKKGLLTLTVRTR
# LIN7B PDZ = LIN7B PDZ (Homo sapiens, UniProt Q9HAP6); conditions: composite holdup affinity; 0.00=below quantification threshold; read-out: COMP pKd (converted)
# LIN7B PDZ, sequence (Q9HAP6 93-175 limits assumed): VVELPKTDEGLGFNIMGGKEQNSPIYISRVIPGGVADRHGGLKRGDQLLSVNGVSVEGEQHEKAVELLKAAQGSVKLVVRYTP
# LNX1_2 PDZ = LNX1_2 PDZ (Homo sapiens, UniProt Q8TBB1); conditions: composite holdup affinity; 0.00=below quantification threshold; read-out: COMP pKd (converted)
# LNX1_2 PDZ, sequence (Q8TBB1 381-464 limits assumed): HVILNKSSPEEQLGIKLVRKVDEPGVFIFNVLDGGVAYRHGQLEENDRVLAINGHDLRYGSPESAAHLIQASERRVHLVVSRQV
# MAGI1_3 PDZ = MAGI1_3 PDZ (Homo sapiens, UniProt Q96QZ7); conditions: sheet PPI_convert; read-out: affinity to PDZ MAGI1_3 (converted)
# MAGI1_3 PDZ, sequence (Q96QZ7 643-721 limits assumed): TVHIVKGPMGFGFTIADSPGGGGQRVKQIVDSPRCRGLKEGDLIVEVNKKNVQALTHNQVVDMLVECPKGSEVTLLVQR
# MAGI1_5 PDZ = MAGI1_5 PDZ (Homo sapiens, UniProt Q96QZ7); conditions: sheet PPI_convert; read-out: affinity to PDZ MAGI1_5 (converted)
# MAGI1_5 PDZ, sequence (Q96QZ7 970-1066 limits assumed): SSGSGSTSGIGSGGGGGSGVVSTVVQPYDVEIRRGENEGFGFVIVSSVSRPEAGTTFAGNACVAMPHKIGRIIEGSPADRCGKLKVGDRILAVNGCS
# MAGI1_6 PDZ = MAGI1_6 PDZ (Homo sapiens, UniProt Q96QZ7); conditions: sheet PPI_convert; read-out: affinity to PDZ MAGI1_6 (converted)
# MAGI1_6 PDZ, sequence (Q96QZ7 1124-1206 limits assumed): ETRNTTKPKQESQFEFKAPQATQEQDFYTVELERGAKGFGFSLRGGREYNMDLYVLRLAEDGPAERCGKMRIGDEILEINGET
# MAGIX PDZ = MAGIX PDZ (Homo sapiens, UniProt Q9H6Y5); conditions: sheet PPI_convert; read-out: affinity to PDZ MAGIX (converted)
# MAGIX PDZ, sequence (Q9H6Y5 125-209): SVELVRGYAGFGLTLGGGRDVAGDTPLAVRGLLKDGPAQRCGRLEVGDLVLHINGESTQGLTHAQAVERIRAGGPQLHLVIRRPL
# Text: Supplement 41467_2022_33018_MOESM4_ESM.xlsx, sheet "PPI_convert" | column: MAGIX
# Inadl_5 PDZ = Inadl_5 PDZ (Homo sapiens, UniProt Q8NI35); conditions: composite holdup affinity; 0.00=below quantification threshold; read-out: COMP pKd (converted)
# Inadl_5 PDZ, sequence (Q8NI35 686-772 limits assumed): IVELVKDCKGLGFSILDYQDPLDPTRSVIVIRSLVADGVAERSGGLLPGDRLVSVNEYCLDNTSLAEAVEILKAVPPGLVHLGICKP
# CARD14 PDZ = CARD14 PDZ (Homo sapiens, UniProt Q9BXL6); conditions: sheet PPI_convert; read-out: affinity to PDZ CARD14 (converted)
# CARD14 PDZ, sequence (Q9BXL6 568-658 limits assumed): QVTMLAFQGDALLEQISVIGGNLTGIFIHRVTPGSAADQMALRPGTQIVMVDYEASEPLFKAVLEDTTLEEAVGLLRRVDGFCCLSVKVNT
# DLG5_2 PDZ = DLG5_2 PDZ (Homo sapiens, UniProt Q8TDM6); conditions: sheet PPI_convert; read-out: affinity to PDZ DLG5_2 (converted)
# DLG5_2 PDZ, sequence (Q8TDM6 705-796 limits assumed): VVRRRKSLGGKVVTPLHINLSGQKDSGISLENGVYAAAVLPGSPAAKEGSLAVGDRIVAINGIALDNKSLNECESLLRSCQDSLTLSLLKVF
# DVL1 PDZ = DVL1 PDZ (Homo sapiens, UniProt O14640); conditions: sheet PPI_convert; read-out: affinity to PDZ DVL1 (converted)
# DVL1 PDZ, sequence (O14640 251-323 limits assumed): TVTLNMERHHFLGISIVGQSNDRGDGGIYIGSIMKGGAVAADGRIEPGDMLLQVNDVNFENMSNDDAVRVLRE
# DVL2 PDZ = DVL2 PDZ (Homo sapiens, UniProt O14641); conditions: sheet PPI_convert; read-out: affinity to PDZ DVL2 (converted)
# DVL2 PDZ, sequence (O14641 267-339 limits assumed): as the sequence (O14640 251-323 limits assumed) above, with R8K, H9Y, H10N, D22E, V57M, E73D counted along it
# PDZD2_3 PDZ = PDZD2_3 PDZ (Homo sapiens, UniProt O15018); conditions: sheet PPI_convert; read-out: affinity to PDZ PDZD2_3 (converted)
# PDZD2_3 PDZ, sequence (O15018 586-672 limits assumed): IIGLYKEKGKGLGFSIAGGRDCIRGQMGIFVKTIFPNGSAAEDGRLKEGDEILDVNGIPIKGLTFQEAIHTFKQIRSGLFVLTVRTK
# PDZRN3_2 PDZ = PDZRN3_2 PDZ (Homo sapiens, UniProt Q9UPQ7); conditions: sheet PPI_convert; read-out: affinity to PDZ PDZRN3_2 (converted)
# PDZRN3_2 PDZ, sequence (Q9UPQ7 419-503 limits assumed): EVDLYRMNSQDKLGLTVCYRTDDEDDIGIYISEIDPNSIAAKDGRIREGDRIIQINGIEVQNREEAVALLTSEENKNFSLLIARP
# Inadl_8 PDZ, sequence (Q8NI35 1437-1520 limits assumed): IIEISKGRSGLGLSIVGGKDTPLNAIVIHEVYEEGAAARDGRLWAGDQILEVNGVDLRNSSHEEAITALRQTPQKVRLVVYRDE
Sequence,Kd (Inadl_8 PDZ),Kd (IL16_1 PDZ),Kd (LIN7B PDZ),Kd (LNX1_2 PDZ),Kd (MAGI1_3 PDZ),Kd (MAGI1_5 PDZ),Kd (MAGI1_6 PDZ),Kd (MAGIX PDZ),Kd (Inadl_5 PDZ),Kd (CARD14 PDZ),Kd (DLG5_2 PDZ),Kd (DVL1 PDZ),Kd (DVL2 PDZ),Kd (PDZD2_3 PDZ),Kd (PDZRN3_2 PDZ)
RHTTSTETAV [HPV30-E6],115 µM,83.2 µM,195 µM,214 µM,19.1 µM,9.55 µM,18.6 µM,4.47 µM,,,,,,,
RTRQRNETQV [HPV51-E6],,,,,,,,,398 µM,45.7 µM,23.4 µM,13.8 µM,25.7 µM,60.3 µM,69.2 µM
